Two molecules from patent US9579306B2, “Substituted 2-imidazolidinones and 2-imidazolones and their use in the treatment of cancer” (UNIVERSITÉ LAVAL, priority 2011, dated 2017) can be followed below.

Turning to `CCCN1CCN(c2ccc(S(=O)(=O)Oc3cc(OC)cc(OC)c3)cc2)C1=O` [Compound 104, 3,5-dimethoxyphenyl 4-(2-oxo-3-propylimidazolidin-1-yl)benzenesulfonate], the melting point (commonly the temperature, or range, at which the solid turns liquid) was in the range of 104 to 105 °C.

`CCCN1CCN(c2ccc(S(=O)(=O)Oc3cc(OC)c(OC)c(OC)c3)cc2)C1=O` [Compound 101, 3,4,5-trimethoxyphenyl 4-(2-oxo-3-propylimidazolidin-1-yl)benzenesulfonate] registered a melting point of 133 to 134 °C.
